The source of these data is PMC5844890 (Scientific Reports, 2018).

One data set relates to MDA-MB-231 cells. Description: Cell cycle analysis (propidium iodide, flow cytometry). It counts as cell-based, human. The conditions noted are these: 24 h treatment. As for the experimental part: Tubulin-binding agents interfere with mitotic spindle formation during cell division. […] Thus, we investigated whether 27 and 28 affect the progression of human breast cancer MDA-MB-231 cells through the cell cycle. […] In contrast, compounds 27 and 28 arrested the cell cycle in the M phase (mitosis) at concentrations as low as 0.03 and 0.1 μM (for compound 27 and 28 respectively).
Figure 6 Mechanism of action of the benzofurane derivatives. (A) Inhibition of cell cycle progression. MDA-MB-231 cells were treated with DMSO (control) or compounds 8, 27 or 28 for 24 h. Next, the cells were harvested, stained with propidium iodide (PI), and cell cycle distribution was evaluated by flow cytometry. Percentages of cells in the different phases of the cell cycle are indicated. (B) Caspase-3 activity. MDA-MB-231 cells were seeded in 48-well plates at 40,000 cells/cm². After 24 h, different concentrations of compounds 8, 27 or 28 and 2 µM of the caspase-3 substrate DEVD-NucView488 were added. After 16 h, the cells were incubated with 2 µg/ml Hoechst 33342 to stain the nucleus, and imaged. (C) Disruption of the vascular network. HMEC-1 cells were cultured on matrigel for 3 h to allow the formation of tube-like structures. Next, different concentrations of compounds were added. Upper panel: After 90 min, pictures were taken and the tubular network was scored (3: intact network, 0: network completely destroyed). Bars show average ± SEM (n = 4). Lower panel: Microscopic pictures of the tubular network 3 h after addition of compound.
MDA-MB-231 cells were seeded in 6-well plates at 125,000 cells/well in DMEM with 10% FBS. After 24 h, the cells were exposed to different concentrations of the compounds. After 24 h, the DNA of the cells was stained with propidium iodide using the CycleTEST PLUS DNA Reagent Kit (BD Biosciences, San Jose, CA). The DNA content of the stained cells was assessed by flow cytometry on a FACSCalibur flow cytometer and analyzed with CellQuest software (BD Biosciences) within 3 h after staining. Cell debris and clumps were excluded from the analysis by appropriate dot plot gating. Percentages of sub-G1, G1, S, and G2/M cells were estimated using appropriate region markers.
(In flow cytometry, cells or beads pass a laser one at a time.)

In a further data set the test system is A2780 cells. Description: Anti-proliferative activity, A2780 ovarian carcinoma cells. The conditions noted are these: Homo sapiens, A2780; mean ± standard error of three independent experiments. It counts as cell-based, human. The text has this: (§1) One of the most relevant causes of tumor resistance to chemotherapy is the overexpression of membrane pumps which remove the chemotherapeutic agents from the treated cells.

In the next data set the test system is HMEC-1 cells. Description: IncuCyte scratch wound migration assay with PI uptake. The conditions noted are these: for uptake of PI (toxicity): at the lowest concentration inhibiting wound closure (0.5, 0.06 and 0.06 µM). The format is cell-based. As for the experimental part:
Proper tubulin organization is not only required for cell division but also for cell motility and migration. Therefore, we evaluated the capacity of the compounds to inhibit the migration of HMEC-1 endothelial cells. To this end, we used the 96-well IncuCyte® scratch wound assay. After the creation of a cell-free zone (wound) in a confluent cell monolayer, compounds were added, and relative wound density was measured every minute and visualized in time-course plots. PI was added to all wells to visualize toxicity over time, i.e. only dead cells take up this cell-impermeable dye.
Figure 7 Inhibition of HMEC-1 migration. The 96-well IncuCyte® scratch wound assay was used to create a cell-free zone (wound) in a confluent cell monolayer. Next, compounds were added and the relative wound density was measured every minute and visualized in time-course plots (left panels). PI is added to all wells to visualize toxicity over time, i.e. only dead cells take up this cell-impermeable dye (right panels). Average ± SEM (n = 3) are shown.
Wounds were created in confluent HMEC-1 cells by means of the “Incucyte® wound maker”. Next, different concentrations of compound and PI were added and images were taken every 2 min for the duration of the experiment. The algorithm masks each phase-contrast image to identify the position of the wounded (cell-free) and unwounded (cell-occupied) zones. Relative wound density is calculated and visualized in time-course plots.

For a further data set, the system named is CEM cells. The data set is described as follows: Anti-proliferative activity, CEM lymphoblastic leukemia cells (Coulter counting). The settings on record: Homo sapiens, CCRF-CEM; mean ± SD of three independent experiments; 96 h; read-out: Tumor cells IC50 CEM. The format is cell-based. The text has this: (§2) The anti-proliferative activity of the synthesized benzofurane derivatives was studied in three human cancer cell lines [breast carcinoma (MDA-MB-231), lymphoblastic leukemia (CEM) and cervical carcinoma (HeLa) cells] and one endothelial cell line [human microvascular endothelial cells (HMEC-1)].
The human microvascular endothelial cell line HMEC-1 was obtained at passage 12 from the Centers for Disease Control and Prevention (Atlanta, GA, USA) and used from passage 17 till 27. Human breast carcinoma (MDA-MB-231), human cervical carcinoma (HeLa) and human T-lymphoid (CEM) cells were obtained from ATCC (Middlesex, UK). Cell lines were maintained in culture for up to 3 months and grown in DMEM, supplemented with 10% FBS, 0.01 M Hepes and 1 mM sodium pyruvate. All cells were cultured in a humidified 5% CO2 incubator at 37 °C.
(§3) HMEC-1 cells were seeded in 48-well plates at 20,000 cells/well. After 24 h, 5-fold dilutions of the compounds were added. The cells were allowed to proliferate 4 days in the presence of the compounds, trypsinized, and counted by means of a Coulter counter (Analis, Belgium). HeLa and MDA-MB-231 cells were seeded in 48-well plates at 10,000 cells/well. After 24 h, different concentrations of the compounds were added. After 3 days of incubation, the cells were trypsinized and counted in a Coulter counter. Suspension cells (human lymphoid Cem cells) were seeded in 96-well plates at 60,000 cells/well in the presence of different concentrations of the compounds, allowed to proliferate for 96 h, and counted in a Coulter counter. The 50% inhibitory concentration (IC50) was defined as the compound concentration required to reduce cell proliferation by 50%.

In data set [1] the test system is MDA-MB-231, CEM, HeLa and HMEC-1 cells. Description: Anti-proliferative activity, summary over tumor and endothelial cell lines. The settings on record: Homo sapiens. The format is cell-based. As for the experimental part:
as §2, §3

In the next data set the test system is A2780AD cells. Description: Anti-proliferative activity, A2780AD (MDR overexpressing P-glycoprotein) ovarian carcinoma cells. The format is cell-based, human. The settings on record: Homo sapiens, A2780AD; P-glycoprotein overexpressing resistant line; mean ± standard error of three independent experiments; read-out: A2780 AD IC50.
Description: as §1

[2] abbreviates: Endothelial cell, range stated in the conclusions, read-out: IC50 (antiproliferative activity against tumor and endothelial cells).
Where [3] appears, read: range over tumor and endothelial cell lines, read-out: IC50 values ranging (antiproliferative, all cell lines of Table 1).

Structures are written as SMILES. Like-named read-outs stand apart in the source and are kept apart here.

As a reminder, the IC50 is the concentration that gives 50% inhibition. `COCc1cc2cccc(NC(C)=C3C(=O)CC(c4ccccc4)CC3=O)c2o1` (stereo not drawn) [Compound 27, 2-(1-((2-(Methoxymethyl)benzofuran-7-yl)amino)ethylidene)-5-phenylcyclohexane-1,3-dione]: in the data set on MDA-MB-231 cells, the “cells in the sub-G1 phase (indicative of apoptosis)” value was “caused an increase of cells in the sub-G1 phase”. Also, the “lowest concentration arresting the cell cycle in the M phase” value in the data set with MDA-MB-231 cells is 0.03 µM. In addition, the IC50 in the data set on A2780 cells was 23 ± 2 nM; in the data set on CEM cells, 31 ± 2 nM; in data set [1] (setting [2]) it was 8 to 31 nM; in data set [1] (setting [3]) it was 9 to 51 nM; in the data set with A2780AD cells it was 39 ± 15 nM. In addition, in the data set on HMEC-1 cells, the “lowest concentration inhibiting wound closure” value came to 0.06 µM. The “uptake of PI (toxicity)” value in the data set with HMEC-1 cells is on record as “No increased uptake of PI”.
As for `CC(Nc1cccc2cc(COCCCO)oc12)=C1C(=O)CC(c2ccccc2)CC1=O` (stereo not drawn) [Compound 28, 2-(1-((2-((3-Hydroxypropoxy)methyl)benzofuran-7-yl)amino)ethylidene)-5-phenylcyclohexane-1,3-dione], in the data set with MDA-MB-231 cells, the “cells in the sub-G1 phase (indicative of apoptosis)” value is reported as “caused an increase of cells in the sub-G1 phase”. Besides, the “lowest concentration arresting the cell cycle in the M phase” value in the data set on MDA-MB-231 cells is 0.1 µM. In addition, the IC50 was 38 ± 7 nM in the data set with A2780 cells; 51 ± 18 nM in the data set on CEM cells; 8 to 31 nM in data set [1] (setting [2]); 9 to 51 nM in data set [1] (setting [3]); 76 ± 15 nM with A2780AD cells. In addition, in the data set with HMEC-1 cells, the “lowest concentration inhibiting wound closure” value was determined as 0.06 µM. For the same molecule, the “uptake of PI (toxicity)” value with HMEC-1 cells was “No increased uptake of PI”.
